test system: Human PBMC; assay: TLR7/8 agonists induce cytokine release in human PBMC (ELISA of culture supernatant); assay type: cell-based; conditions: 24 h incubation, lowest concentration inducing cytokine at least 2x greater than negative control wells
Method: Example 8. TLR7/8 Agonists Induce IFN-Gamma and TNF-Alpha Release in Human PBMC
The system is used to assess the cytokines release. Activity is based on the measurement of interferon-gamma (IFN-γ) and tumor necrosis factor-alpha (TNF-α) secreted into culture media.
Fresh human blood was diluted with the same volume of PBS, 15 mL Lymphoprep was added into a Sepmate tube, then 30 mL diluted blood was added on the top gently without disturbing the interface.
The Sepmate tube was centrifuged for 25 min at 1000×g at RT with brake off.
The buffy coat containing peripheral blood mononuclear cells (PBMCs) was collected from Sepmate tube and transferred into a new tube, and the cells were washed with 40 mL PBS twice and centrifuged at 350×g for 5 min.
PBMCs were resuspended in complete culture medium at a density of 2E6/ml.
The compounds are solubilized in dimethyl sulfoxide (DMSO) and diluted into indicated concentration with complete culture medium.
2*10^5 PBMCs (in 100 μL) were added to each well of 96-well flat bottom plate.
2× final concentration of 3-fold serial diluted compounds (in 100 μL) were added to indicated wells and final volume was 200 μL.
The plate was covered with sterile lids, mixed gently and then incubated for 24 h at 37° C./5% CO2 incubator.
Following incubation, the plates was centrifuged for 5 min. at 400×g. The cell-free culture Supernatant was removed into a non-sterile polypropylene plate. Samples are maintained at −80° C. until analysis. The samples were analyzed for TNF-α and IFN-γ by ELSA according to the direction.
TNF-α and IFN-α were analyzed by ELISA. IFN-α concentration was determined by ELISA using a Human IFN-α ELISA Kit from R&D Systems (Catalog #41100-2) and read on VICTOR Nivo™ from PerkinElmer. Results were expressed in pg/mL. TNF-α concentration was determined by ELISA using a Human TNF-alpha ELISA MAX™ Deluxe from BioLegend (Catalog #430205) and read on VICTOR Nivo™ from PerkinElmer. Results were expressed in pg/mL.
Specifically, the MEC of each compound (micromolar) was determined as the lowest concentration of the compound that induced a measured cytokine response at a level ([…]) that was at least 2× greater than that observed with the negative control wells.

| SMILES | MEC to induce cytokine IFN-alpha | MEC to induce cytokine TNF-alpha |
| --- | --- | --- |
| CCCCc1nc2c(N)nc3cc(P(=O)(CC)CC)ccc3c2n1OCCCCN [Example 2, (4-amino-1-(4-aminobutoxy)-2-butyl-1H-imidazo[4,5-c]quinolin-7-yl)diethylphosphine oxide] | 0.137 µM | 11.1 µM |
| CCCCc1nc2c(N)nc3cc(P(C)(C)=O)ccc3c2n1OCCCCN [Example 1, (4-amino-1-(4-aminobutoxy)-2-butyl-1H-imidazo[4,5-c]quinolin-7-yl)dimethylphosphine oxide] | 0.046 µM | 3.7 µM |
| CCCCCCCCCCCCCCCCCc1cn(CCCCOn2c(CCCC)nc3c(N)nc4cc(P(C)(C)=O)ccc4c32)nn1 [Example 6, (4-amino-2-butyl-1-(4-(4-heptadecyl-1H-1,2,3-triazol-1-yl)butoxy)-1H-imidazo[4,5-c]quinolin-7-yl)dimethylphosphine oxide] | >33.3 µM | >33.3 µM |
| CCCCCCCCCCCCCCCCCNc1c(NCCCCOn2c(CCCC)nc3c(N)nc4cc(P(C)(C)=O)ccc4c32)c(=O)c1=O [Example 4] | 1.73 µM | 11.1 µM |
| CCCCCCCCCCCCCCCCCNc1c(NCCCCOn2c(CCCC)nc3c(N)nc4cc(P(=O)(CC)CC)ccc4c32)c(=O)c1=O [Example 7, 3-(4-(4-amino-2-butyl-7-(diethylphosphoryl)-1H-imidazo[4,5-c]quinolin-1-yloxy)butylamino)-4-(heptadecylamino)cyclobut-3-ene-1,2-dione] | 0.015 µM | 3.7 µM |
| CCCCCCCCCCCCCCCCCC(=O)NCCCCOn1c(CCCC)nc2c(N)nc3cc(P(C)(C)=O)ccc3c21 [Example 3, N-(4-((4-amino-2-butyl-7-(dimethylphosphoryl)-1H-imidazo[4,5-c]quinolin-1-yl)oxy)butyl)stearamide] | 0.015 µM | 0.015 µM |

From patent US11932663B2 (CanWell Biotech Limited, priority 2020, dated 2024)
